In patent US10105357B2, “Indication of antibiotic drugs for preparation of cancer inhibition pharmaceutical composition” (LAUNX BIOMEDICAL CO., LTD., priority 2014, dated 2018):
Where two headings read alike, the source gives them in different places.

Assays:
TOV-21G = assay: Cell viability analysis, ovarian cancer TOV-21G; assay type: cell-based, human; details: Homo sapiens, TOV21G, 72 h, read-out: The results of antibiotic drug inhibiting cancer cell lines (cell viability analysis), TOV-21G
BxPC-3 = assay: Cell viability analysis, pancreatic cancer BxPC-3; assay type: cell-based, human; details: Homo sapiens, BXPC-3, 72 h, read-out: The results of antibiotic drug inhibiting cancer cell lines (cell viability analysis), BxPC-3
[1] = system: HL-60 (Acute Promyelocytic Leukemia); assay: Cell viability analysis, leukemia HL-60; assay type: cell-based, human; details: Homo sapiens, HL-60, 72 h, read-out: cell viability (survival rate), HL-60, drug 10 μM, 72 hours, WST-1, OD450 nm
[2] = system: HCT116 (p53+) (Colorectal Carcinoma)
U-2OS = assay: Cell viability analysis, osteosarcoma U-2OS; assay type: cell-based, human; details: Homo sapiens, U2OS, 72 h, read-out: The results of antibiotic drug inhibiting cancer cell lines (cell viability analysis), U2OS
[3] = system: PC3 (p53−) (Prostate Adenocarcinoma); assay: Cell viability analysis, prostate cancer PC3; assay type: cell-based, human; details: Homo sapiens, 72 h
[4] = system: BCC (basal cell carcinoma); assay: Cell viability analysis, skin cancer BCC; assay type: cell-based, human; details: Homo sapiens, 72 h, read-out: The results of antibiotic drug inhibiting cancer cell lines (cell viability analysis), BCC
[5] = system: MDA-MB-231 (Mammary Gland, Adenocarcinoma); assay: Cell viability analysis, breast cancer MDA-MB-231; assay type: cell-based, human; details: Homo sapiens, MDA-MB-231, 72 h, read-out: The results of antibiotic drug inhibiting cancer cell lines (cell viability analysis), MDA-MB231
NIH: OVCAR-3 = assay: Cell viability analysis, ovarian cancer NIH: OVCAR-3; assay type: cell-based, human; details: Homo sapiens, OVCAR-3, 72 h, read-out: The results of antibiotic drug inhibiting cancer cell lines (cell viability analysis), NIH-OVCAR-3
[6] = system: SAS (Tongue squamous cell carcinoma); assay: Cell viability analysis, tongue cancer SAS; assay type: cell-based, human; details: Homo sapiens, 72 h, read-out: The results of antibiotic drug inhibiting cancer cell lines (cell viability analysis), SAS
[7] = system: MKN-45 (Gastric Adenocarcinoma); assay: Cell viability analysis, gastric cancer MKN-45; assay type: cell-based, human; details: Homo sapiens, MKN-45, 72 h
[8] = system: AGS (Gastric Adenocarcinoma); assay: Cell viability analysis, gastric cancer AGS; assay type: cell-based, human; details: Homo sapiens, 72 h
[9] = system: C-33A (Cervical carcinoma); assay: Cell viability analysis, cervical cancer C-33A; assay type: cell-based, human; details: Homo sapiens, C-33-A, 72 h, read-out: The results of antibiotic drug inhibiting cancer cell lines (cell viability analysis), C-33A
[10] = system: A375 (Amelanotic Melanoma); assay: Cell viability analysis, skin cancer A375; assay type: cell-based, human; details: Homo sapiens, A-375, 72 h
[11] = system: TSGH-8301 (Urinary Bladder Carcinoma); assay: Cell viability analysis, bladder cancer TSGH-8301; assay type: cell-based, human; details: Homo sapiens, 72 h
T24 = assay: Cell viability analysis, bladder cancer T24; assay type: cell-based, human; details: Homo sapiens, T-24, 72 h, read-out: The results of antibiotic drug inhibiting cancer cell lines (cell viability analysis), T24
[12] = system: MCF7 (Mammary Gland, Adenocarcinoma); assay: Cell viability analysis, breast cancer MCF7; assay type: cell-based, human; details: Homo sapiens, MCF7, 72 h
[13] = system: LoVo (Colorectal Adenocarcinoma); assay: Cell viability analysis, colon cancer LoVo; assay type: cell-based, human; details: Homo sapiens, LoVo, 72 h
[14] = system: 786-O (Renal adenocarcinoma); assay: Cell viability analysis, renal cancer 786-O; assay type: cell-based, human; details: Homo sapiens, 786-0, 72 h, read-out: The results of antibiotic drug inhibiting cancer cell lines (cell viability analysis), 786-O
[15] = system: Hep3B (hepatocellular carcinoma); assay: Cell viability analysis, hepatic cancer Hep3B; assay type: cell-based, human; details: Homo sapiens, Hep3B, 72 h, read-out: The results of antibiotic drug inhibiting cancer cell lines (cell viability analysis), Hep3B
[16] = system: HI650 (Lung Adenocarcinoma); assay: Cell viability analysis, lung cancer HI650; assay type: cell-based, human; details: Homo sapiens, NCI-H1650, 72 h
AsPC-1 = assay: Cell viability analysis, pancreatic cancer AsPC-1; assay type: cell-based, human; details: Homo sapiens, ASPC1, 72 h, read-out: The results of antibiotic drug inhibiting cancer cell lines (cell viability analysis), AsPC-1
[17] = system: A549 (Lung Adenocarcinoma); assay: Cell viability analysis, lung cancer A549; assay type: cell-based, human; details: Homo sapiens, A549, 72 h
[18] = system: HeLa (Cervix Adenocarcinoma); assay: Cell viability analysis, cervical cancer HeLa; assay type: cell-based, human; details: Homo sapiens, HeLa, 72 h

With COc1cc(NC(C)CCCN)c2ncccc2c1 (stereo not shown) [Primaquine Diphosphate] the viability at 10 µM (TOV-21G) was 54.8%, the viability at 10 µM (BxPC-3) was 49.8% and the viability at 10 µM [1] was 34.1%. It also gave a viability [2] of 60.9%, a viability at 10 µM (U-2OS) of 59.6% and a viability at 10 µM ([3]; read-out: The results of antibiotic drug inhibiting cancer cell lines (cell viability analysis), PC-3, PC-3, repeated experiment) of 65.7%. The viability at 10 µM ([3]; read-out: cell viability (survival rate), PC3, drug 10 μM, 72 hours, WST-1, OD450 nm) was 60.3%, the viability at 10 µM [4] was 35.9% and the viability at 10 µM [5] was 65.4%. The viability at 10 µM (NIH: OVCAR-3) was 60.2%, the viability at 10 µM [6] was 59.9% and the viability at 10 µM ([7]; read-out: The results of antibiotic drug inhibiting cancer cell lines (cell viability analysis), MKN-45, MKN-45, repeated experiment) was 63.1%. It also gave a viability at 10 µM ([7]; read-out: cell viability (survival rate), MKN-45, drug 10 μM, 72 hours, WST-1, OD450 nm) of 64.3%, a viability at 10 µM ([8]; read-out: The results of antibiotic drug inhibiting cancer cell lines (cell viability analysis), AGS, repeated experiment) of 37.1% and a viability at 10 µM ([8]; read-out: cell viability (survival rate), AGS, drug 10 μM, 72 hours, WST-1, OD450 nm) of 43.9%. It also gave a viability at 10 µM [9] of 96.8%, a viability at 10 µM ([10]; read-out: The results of antibiotic drug inhibiting cancer cell lines (cell viability analysis), A375, A375, repeated experiment) of 38.7% and a viability at 10 µM ([10]; read-out: cell viability (survival rate), A375, drug 10 μM, 72 hours, WST-1, OD450 nm) of 44.6%. For the same compound, the viability at 10 µM ([11]; read-out: The results of antibiotic drug inhibiting cancer cell lines (cell viability analysis), TSGH-8301, TSGH-8301, repeated experiment) was 51.5%, the viability at 10 µM ([11]; read-out: cell viability (survival rate), TSGH, drug 10 μM, 72 hours, WST-1, OD450 nm) was 55.5% and the viability at 10 µM (T24) was 72.6%. The viability at 10 µM ([12]; read-out: The results of antibiotic drug inhibiting cancer cell lines (cell viability analysis), MCF-7, MCF-7, repeated experiment) was 50.7%, the viability at 10 µM ([12]; read-out: cell viability (survival rate), MCF7, drug 10 μM, 72 hours, WST-1, OD450 nm) was 36.7% and the viability at 10 µM ([13]; read-out: The results of antibiotic drug inhibiting cancer cell lines (cell viability analysis), LoVo, repeated experiment) was 81.2%. The viability at 10 µM ([13]; read-out: cell viability (survival rate), LoVo, drug 10 μM, 72 hours, WST-1, OD450 nm) was 72.6%, the viability at 10 µM [14] was 81.5% and the viability at 10 µM [15] was 115%. It also gave a viability at 10 µM ([16]; read-out: The results of antibiotic drug inhibiting cancer cell lines (cell viability analysis), H1650, H1650, repeated experiment) of 66.8%, a viability at 10 µM ([16]; read-out: cell viability (survival rate), H1650, drug 10 μM, 72 hours, WST-1, OD450 nm) of 56.4% and a viability at 10 µM (AsPC-1) of 66.5%. For the same compound, the viability at 10 µM ([17]; read-out: The results of antibiotic drug inhibiting cancer cell lines (cell viability analysis), A549, A549, repeated experiment) was 47.4%, the viability at 10 µM ([17]; read-out: cell viability (survival rate), A549, drug 10 μM, 72 hours, WST-1, OD450 nm) was 31.4% and the viability at 10 µM ([18]; read-out: The results of antibiotic drug inhibiting cancer cell lines (cell viability analysis), HeLa, repeated experiment) was 61.2%. It also gave a viability at 10 µM ([18]; read-out: cell viability (survival rate), HeLa, drug 10 μM, 72 hours, WST-1, OD450 nm) of 55%.
